Values quoted from earlier work, collected in PubChem BioAssay AID1259409 (Chemical Carcinogenesis Research Information System (CCRIS), 2018).

Test system: rodent chemically induced tumor inhibition, incidence and multiplicity
Assay: CCRIS tumor inhibitor studies

Structure (SMILES): O=C(OC[C@@H]1O[C@H](OC(=O)c2cc(O)c(O)c(OC(=O)c3cc(O)c(O)c(O)c3)c2)[C@@H](OC(=O)c2cc(O)c(O)c(OC(=O)c3cc(O)c(O)c(O)c3)c2)[C@H](OC(=O)c2cc(O)c(O)c(OC(=O)c3cc(O)c(O)c(O)c3)c2)[C@H]1OC(=O)c1cc(O)c(O)c(OC(=O)c2cc(O)c(O)c(O)c2)c1)c1cc(O)c(O)c(OC(=O)c2cc(O)c(O)c(O)c2)c1
- tumour outcome (control, treated, inhibition, significance) (Carcinogen: 2,2'-DIHYDROXY-DI-N-PROPYLNITROSAMINE, 53609-64-6, N-ETHYL-N-HYDROXYETHYLNITROSAMINE, 13147-25-6, 3,2'-DIMETHYL-4-AMINO-, Carcinogen: 2,2'-DIHYDROXY-DI-N-PROPYLNITROSAMINE, 53609-64-6, N-ETHYL-N-HYDROXYETHYLNITROSAMINE, 13147-25-6, 3,2'-DIMETHYL-4-AMINO-, Dose [Inhibitor]: 0, 1% IN DIET FOR 32 WK BEGINNING 1 WK POST CARCINOGEN TREATMENT (STUDY DURATION: 36 WK), Route [Inhibitor]: ORAL, Species: RAT, Strain/Sex: F344/MALE, Target Tissue: Type of Lesion: KIDNEY: TRANSITIONAL CELL CARCINOMA, Dose [Carcinogen]: 1000 MG/KG BW DHPN TWICE, 1500 MG/KG BW EHEN TWICE, 75 MG/KG BW DMAB 3 TIMES ADMINISTERED OVER FIRST 3 WK, Promoter: NONE USED): 1/14 (7%), 0/12 (0%), 100%, not significant
- tumour outcome (control, treated, inhibition, significance) (Carcinogen: 2,2'-DIHYDROXY-DI-N-PROPYLNITROSAMINE, 53609-64-6, N-ETHYL-N-HYDROXYETHYLNITROSAMINE, 13147-25-6, 3,2'-DIMETHYL-4-AMINO-, Carcinogen: 2,2'-DIHYDROXY-DI-N-PROPYLNITROSAMINE, 53609-64-6, N-ETHYL-N-HYDROXYETHYLNITROSAMINE, 13147-25-6, 3,2'-DIMETHYL-4-AMINO-, Dose [Inhibitor]: 0, 1% IN DIET FOR 32 WK BEGINNING 1 WK POST CARCINOGEN TREATMENT (STUDY DURATION: 36 WK), Route [Inhibitor]: ORAL, Species: RAT, Strain/Sex: F344/MALE, Target Tissue: Type of Lesion: LARGE INTESTINE: ADENOMA, Dose [Carcinogen]: 1000 MG/KG BW DHPN TWICE, 1500 MG/KG BW THEN TWICE, 75 MG/KG BW DMAB 3 TIMES ADMINISTERED OVER FIRST 3 WK, Dose [Carcinogen]: 1000 MG/KG BW DHPN TWICE, 1500 MG/KG BW THEN TWICE, 75 MG/KG BW DMAB 3 TIMES ADMINISTERED OVER FIRST 3 WK, Promoter: NONE USED): 7/14 (50%), 2/12 (17%), 66%, not significant
- tumour outcome (control, treated, inhibition, significance) (Carcinogen: 2,2'-DIHYDROXY-DI-N-PROPYLNITROSAMINE, 53609-64-6, N-ETHYL-N-HYDROXYETHYLNITROSAMINE, 13147-25-6, 3,2'-DIMETHYL-4-AMINO-, Carcinogen: 2,2'-DIHYDROXY-DI-N-PROPYLNITROSAMINE, 53609-64-6, N-ETHYL-N-HYDROXYETHYLNITROSAMINE, 13147-25-6, 3,2'-DIMETHYL-4-AMINO-, Dose [Inhibitor]: 0, 1% IN DIET FOR 32 WK BEGINNING 1 WK POST CARCINOGEN TREATMENT (STUDY DURATION: 36 WK), Route [Inhibitor]: ORAL, Species: RAT, Strain/Sex: F344/MALE, Target Tissue: Type of Lesion: LARGE INTESTINE: CARCINOMA, Dose [Carcinogen]: 1000 MG/KG BW DHPN TWICE, 1500 MG/KG BW THEN TWICE, 75 MG/KG BW DMAB 3 TIMES ADMINISTERED OVER FIRST 3 WK, Promoter: NONE USED): 3/14 (21%), 1/12 (8%), 62%, not significant
- tumour outcome (control, treated, inhibition, significance) (Carcinogen: 2,2'-DIHYDROXY-DI-N-PROPYLNITROSAMINE, 53609-64-6, N-ETHYL-N-HYDROXYETHYLNITROSAMINE, 13147-25-6, 3,2'-DIMETHYL-4-AMINO-, Carcinogen: 2,2'-DIHYDROXY-DI-N-PROPYLNITROSAMINE, 53609-64-6, N-ETHYL-N-HYDROXYETHYLNITROSAMINE, 13147-25-6, 3,2'-DIMETHYL-4-AMINO-, Dose [Inhibitor]: 0, 1% IN DIET FOR 32 WK BEGINNING 1 WK POST CARCINOGEN TREATMENT (STUDY DURATION: 36 WK), Route [Inhibitor]: ORAL, Species: RAT, Strain/Sex: F344/MALE, Target Tissue: Type of Lesion: LIVER: HEPATOCELLULAR CARCINOMA, Dose [Carcinogen]: 1000 MG/KG BW DHPN TWICE, 1500 MG/KG BW THEN, 75 MG/KG BW DMAB 3 TIMES ADMINISTERED OVER FIRST 3 WKS, Promoter: NONE USED): 6/14 (43%), 3/12 (25%), 42%, not significant
- tumour outcome (control, treated, inhibition, significance) (Carcinogen: 2,2'-DIHYDROXY-DI-N-PROPYLNITROSAMINE, 53609-64-6, N-ETHYL-N-HYDROXYETHYLNITROSAMINE, 13147-25-6, 3,2'-DIMETHYL-4-AMINO-, Carcinogen: 2,2'-DIHYDROXY-DI-N-PROPYLNITROSAMINE, 53609-64-6, N-ETHYL-N-HYDROXYETHYLNITROSAMINE, 13147-25-6, 3,2'-DIMETHYL-4-AMINO-, Dose [Inhibitor]: 0, 1% IN DIET FOR 32 WK BEGINNING 1 WK POST CARCINOGEN TREATMENT (STUDY DURATION: 36 WK), Route [Inhibitor]: ORAL, Species: RAT, Strain/Sex: F344/MALE, Target Tissue: Type of Lesion: LUNG: ADENOMA, Dose [Carcinogen]: 1000 MG/KG BW DHPN TWICE, 1500 MG/KG BW THEN TWICE, 75 MG/KG BW DMAB 3 TIMES ADMINISTERED OVER FIRST 3 WK, Dose [Carcinogen]: 1000 MG/KG BW DHPN TWICE, 1500 MG/KG BW THEN TWICE, 75 MG/KG BW DMAB 3 TIMES ADMINISTERED OVER FIRST 3 WK, Promoter: NONE USED): 7/14 (50%), 7/12 (58%), -16%, not significant
- tumour outcome (control, treated, inhibition, significance) (Carcinogen: 2,2'-DIHYDROXY-DI-N-PROPYLNITROSAMINE, 53609-64-6, N-ETHYL-N-HYDROXYETHYLNITROSAMINE, 13147-25-6, 3,2'-DIMETHYL-4-AMINO-, Carcinogen: 2,2'-DIHYDROXY-DI-N-PROPYLNITROSAMINE, 53609-64-6, N-ETHYL-N-HYDROXYETHYLNITROSAMINE, 13147-25-6, 3,2'-DIMETHYL-4-AMINO-, Dose [Inhibitor]: 0, 1% IN DIET FOR 32 WK BEGINNING 1 WK POST CARCINOGEN TREATMENT (STUDY DURATION: 36 WK), Route [Inhibitor]: ORAL, Species: RAT, Strain/Sex: F344/MALE, Target Tissue: Type of Lesion: LUNG: CARCINOMA, Dose [Carcinogen]: 1000 MG/KG BW DHPN TWICE, 1500 MG/KG BW THEN TWICE, 75 MG/KG BW DMAB 3 TIMES ADMINISTERED OVER FIRST 3 WK, Promoter: NONE USED): 1/14 (7%), 2/12 (17%), -143%, not significant
- tumour outcome (control, treated, inhibition, significance) (Carcinogen: 2,2'-DIHYDROXY-DI-N-PROPYLNITROSAMINE, 53609-64-6, N-ETHYL-N-HYDROXYETHYLNITROSAMINE, 13147-25-6, 3,2'-DIMETHYL-4-AMINO-, Carcinogen: 2,2'-DIHYDROXY-DI-N-PROPYLNITROSAMINE, 53609-64-6, N-ETHYL-N-HYDROXYETHYLNITROSAMINE, 13147-25-6, 3,2'-DIMETHYL-4-AMINO-, Dose [Inhibitor]: 0, 1% IN DIET FOR 32 WK BEGINNING 1 WK POST CARCINOGEN TREATMENT (STUDY DURATION: 36 WK), Route [Inhibitor]: ORAL, Species: RAT, Strain/Sex: F344/MALE, Target Tissue: Type of Lesion: THYROID GLAND: CARCINOMA, Dose [Carcinogen]: 1000 MG/KG BW DHPN TWICE, 1500 MG/KG BW THEN TWICE, 75 MG/KG BW DMAB 3 TIMES ADMINISTERED OVER FIRST 3 WK, Promoter: NONE USED): 3/14 (21%), 2/12 (17%), 19%, not significant
- tumour outcome (control, treated, inhibition, significance) (Carcinogen: 2,2'-DIHYDROXY-DI-N-PROPYLNITROSAMINE, 53609-64-6, N-ETHYL-N-HYDROXYETHYLNITROSAMINE, 13147-25-6, 3,2'-DIMETHYL-4-AMINO-, Carcinogen: 2,2'-DIHYDROXY-DI-N-PROPYLNITROSAMINE, 53609-64-6, N-ETHYL-N-HYDROXYETHYLNITROSAMINE, 13147-25-6, 3,2'-DIMETHYL-4-AMINO-, Dose [Inhibitor]: 0, 1% IN DIET FOR 32 WK BEGINNING 1 WK POST CARCINOGEN TREATMENT (STUDY DURATION: 36 WK), Route [Inhibitor]: ORAL, Species: RAT, Strain/Sex: F344/MALE, Target Tissue: Type of Lesion: URINARY BLADDER: CARCINOMA, Dose [Carcinogen]: 1000 MG/KG BW DHPN TWICE, 1500 MG/KG BW THEN TWICE, 75 MG/KG BW DMAB 3 TIMES ADMINISTERED OVER FIRST THREE WEEKS, Promoter: NONE USED): 1/14 (7%), 2/12 (17%), -143%, not significant
- outcome (Carcinogen: 2,2'-DIHYDROXY-DI-N-PROPYLNITROSAMINE, 53609-64-6, N-ETHYL-N-HYDROXYETHYLNITROSAMINE, 13147-25-6, 3,2'-DIMETHYL-4-AMINO-, Carcinogen: 2,2'-DIHYDROXY-DI-N-PROPYLNITROSAMINE, 53609-64-6, N-ETHYL-N-HYDROXYETHYLNITROSAMINE, 13147-25-6, 3,2'-DIMETHYL-4-AMINO-, Dose [Inhibitor]: 0, 1% IN DIET FOR 32 WK BEGINNING 1 WK POST CARCINOGEN TREATMENT (STUDY DURATION: 36 WK), Route [Inhibitor]: ORAL, Species: RAT, Strain/Sex: F344/MALE, Target Tissue: Type of Lesion: URINARY BLADDER: PAPILLOMA, Dose [Carcinogen]: 1000 MG/KG BW DHPN TWICE, 1500 MG/KG BW THEN TWICE, 75 MG/KG BW DMAB 3 TIMES ADMINISTERED OVER FIRST 3 WK, Promoter: NONE USED): 0/14 (0%), 3/12 (25%), -100%, not significant
- tumour outcome (control, treated, inhibition, significance) (Carcinogen: 7,12-DIMETHYLBENZ(A)ANTHRACENE [57-97-6], Dose [Inhibitor]: 400 UG IN 200 µL ACETONE ONCE 24 HR AFTER THE LAST INJECTION OF IRON DEXTRAN (STUDY DURATION: 35 WKS), Route [Inhibitor]: DERMAL, Species: MOUSE, Strain/Sex: SWISS ALBINO/FEMALE, Target Tissue: Type of Lesion: SKIN: TUMORS, Dose [Carcinogen]: 40 UG IN 200 µL ACETONE DAILY FOR 5 D BEGINNING 1 HR AFTER TANNIC ACID TREATMENT (STUDY DURATION: 35 WKS), Promoter: IRON DEXTRAN [9004-66-4]): 70%, 10%, 86%, not calculated
- tumour outcome (control, treated, inhibition, significance) (Carcinogen: 7,12-DIMETHYLBENZ(A)ANTHRACENE [57-97-6], Dose [Inhibitor]: 400 UG IN 200 µL ACETONE ONCE (STUDY DURATION: 35 WKS), Route [Inhibitor]: DERMAL, Species: MOUSE, Strain/Sex: SWISS ALBINO/FEMALE, Target Tissue: Type of Lesion: SKIN: TUMORS, Dose [Carcinogen]: 40 UG IN 200 µL ACETONE DAILY FOR 5 D BEGINNING 1 HR AFTER TANNIC ACID TREATMENT (STUDY DURATION: 35 WKS)): 40%, 0%, 100%, not calculated
